Assay results: ChEMBL document CHEMBL2401711, “Recent progress and future options in the development of GLP-1 receptor agonists for the treatment of diabesity” (Bioorg Med Chem Lett, 2013)
One block for each compound: values may come before it.

How the values were obtained:
[1] = Terminal half life in type 2 diabetes patient at 10 ug, sc bid; type: ADME, organism-based; conditions: human, in vivo, read-out: beta t1/2 (converted)
[2] = target: Albumin (Homo sapiens, UniProt P02768); test: Binding affinity to serum albumin (unknown origin) relative to control; type: ADME; conditions: isolated protein
Chain of Albumin (P02768 whole entry): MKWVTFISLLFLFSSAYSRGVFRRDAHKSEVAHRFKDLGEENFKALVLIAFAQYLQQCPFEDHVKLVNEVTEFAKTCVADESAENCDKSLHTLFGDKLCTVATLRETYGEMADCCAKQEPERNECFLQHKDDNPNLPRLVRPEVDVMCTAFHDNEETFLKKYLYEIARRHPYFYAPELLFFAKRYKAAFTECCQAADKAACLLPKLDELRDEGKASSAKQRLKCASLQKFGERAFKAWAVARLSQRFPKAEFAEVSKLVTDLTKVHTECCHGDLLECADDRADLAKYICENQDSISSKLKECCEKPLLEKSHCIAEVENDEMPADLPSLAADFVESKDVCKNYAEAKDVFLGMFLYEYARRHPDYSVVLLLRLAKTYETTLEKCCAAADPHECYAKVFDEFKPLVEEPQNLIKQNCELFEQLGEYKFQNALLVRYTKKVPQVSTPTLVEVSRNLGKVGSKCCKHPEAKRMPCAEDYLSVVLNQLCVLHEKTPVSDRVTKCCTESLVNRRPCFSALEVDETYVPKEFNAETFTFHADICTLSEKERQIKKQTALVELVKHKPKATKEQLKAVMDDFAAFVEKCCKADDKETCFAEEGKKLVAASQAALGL

[3] = (§1) Half life in human; type: ADME, organism-based; conditions: in vivo
[4] = species: Homo sapiens; test: as §1; type: ADME, organism-based; conditions: in vivo
[5] = system: Homo sapiens; test: Antidiabetic activity in type 2 diabetes patient assessed as reduction of body weight at => 0.8 mg administered once per week measured after 12 weeks (reference value: 1.2 kg); type: functional, organism-based
[6] = system: Homo sapiens; test: Antidiabetic activity in type 2 diabetes patient assessed as reduction of HbA1c at => 0.2 mg administered once per week measured after 12 weeks (reference value: 0.5%); type: functional, organism-based; parameters: scale not given: the % may be the effect or the level left
[7] = system: Homo sapiens; test: Toxicity in type 2 diabetes patient assessed as gastro-intestinal side effects at 10 to 20 mg administered once per week up to 104 weeks; type: organism-based; conditions: in vivo, 17472 h

Compound: CC[C@H](C)[C@H](NC(=O)[C@H](C)NC(=O)CNC(=O)[C@H](Cc1ccccc1)NC(=O)[C@H](CC(N)=O)NC(=O)[C@H](CC(N)=O)NC(=O)[C@H](CO)NC(=O)[C@H](CO)NC(=O)[C@H](Cc1c[nH]cn1)NC(=O)[C@@H](NC(=O)[C@H](CC(C)C)NC(=O)[C@H](Cc1ccccc1)NC(=O)[C@H](CC(N)=O)NC(=O)[C@H](C)NC(=O)[C@H](CC(C)C)NC(=O)[C@H](CCCNC(=N)N)NC(=O)[C@H](CCC(N)=O)NC(=O)[C@@H](NC(=O)[C@H](C)NC(=O)[C@@H]1CSSC[C@H](NC(=O)[C@@H](N)CCCCN)C(=O)N[C@@H](CC(N)=O)C(=O)N[C@@H]([C@@H](C)O)C(=O)N[C@@H](C)C(=O)N[C@@H]([C@@H](C)O)C(=O)N1)[C@@H](C)O)C(C)C)C(=O)N[C@@H](CC(C)C)C(=O)N[C@@H](CO)C(=O)N[C@@H](CO)C(=O)N[C@H](C(=O)N[C@@H](CC(N)=O)C(=O)N[C@H](C(=O)NCC(=O)N[C@@H](CO)C(=O)N[C@@H](CC(N)=O)C(=O)N[C@H](C(=O)N[C@@H](Cc1ccc(O)cc1)C(=O)O)[C@@H](C)O)C(C)C)[C@@H](C)O [AMYLIN]
- half-life [1]: 2.4 h

Compound: SEMAGLUTIDE [listing 2 of 2 here]
- Activity [5]: < 4.8 kg
- Activity [6]: < 1.7%

Compound: TASPOGLUTIDE
- Activity [7]: 34%

Now from value to compound:

- Activity [2]: 99%
- half-life [3]: 264 h
Compound: CCCCCCCCCCCCCCCC(=O)N[C@@H](CCC(=O)NCCCC[C@H](NC(=O)[C@H](C)NC(=O)[C@H](C)NC(=O)[C@H](CCC(N)=O)NC(=O)CNC(=O)[C@H](CCC(=O)O)NC(=O)[C@H](CC(C)C)NC(=O)[C@H](Cc1ccc(O)cc1)NC(=O)[C@H](CO)NC(=O)[C@H](CO)NC(=O)[C@@H](NC(=O)[C@H](CC(=O)O)NC(=O)[C@H](CO)NC(=O)[C@@H](NC(=O)[C@H](Cc1ccccc1)NC(=O)[C@@H](NC(=O)CNC(=O)[C@H](CCC(=O)O)NC(=O)[C@H](C)NC(=O)[C@@H](N)Cc1cnc[nH]1)[C@@H](C)O)[C@@H](C)O)C(C)C)C(=O)N[C@@H](CCC(=O)O)C(=O)N[C@@H](Cc1ccccc1)C(=O)N[C@H](C(=O)N[C@@H](C)C(=O)N[C@@H](Cc1c[nH]c2ccccc12)C(=O)N[C@@H](CC(C)C)C(=O)N[C@H](C(=O)N[C@@H](CCCNC(=N)N)C(=O)NCC(=O)N[C@@H](CCCNC(=N)N)C(=O)NCC(=O)O)C(C)C)[C@@H](C)CC)C(=O)O [LIRAGLUTIDE]

- t1/2 [4]: 160 h
Compound: SEMAGLUTIDE [listing 1 of 2 here]
